Experiments:
ABCA4−/− mice = assay: Drug holiday after 28 days of HPR: A2E and precursors in eyecup extracts (HPLC); type: in vivo; settings: 28-day drug holiday
Description: HPR (10 mg/kg in DMSO) was administered to ABCA4−/− mice daily for a period of 28 days. Control ABCA4−/− mice received only DMSO for the same period. […] Importantly, the observed reductions in lipofuscin autofluorescence persist long after cessation of HPR therapy. HPR (10 mg/kg), or DMSO, administration was discontinued following 28 days of treatment and re-evaluated A2E and precursor levels after 2 weeks and after 4 weeks.
We examined eyecup extracts by HPLC and employed detection by absorbance and fluorimetry. Identity of the indicated peaks was confirmed by on-line spectral analysis and by co-elution with authentic standards. […] Further, the A2E and precursor (A2PE-H2 and A2PE) levels after a […] or 28-day drug holiday remained at or near the levels immediately following 28 days of treatment (i.e., ca. 50% reduction relative to control), although after the 28-day drug holiday, the amount of A2E and precursor (A2PE-H2 and A2PE) had increased by a few percentage points relative to the 12-day drug holiday levels. […] It is clear that peak fluorescence tracks with the abundance of A2E, A2PE and A2PE-H2.

TTR binding to RBP = TTR binding to RBP (Homo sapiens, UniProt P02753); assay: Size exclusion study of transthyretin (TTR) binding to RBP; settings: 10 μM Apo-RBP; for binding of ligand-RBP to TTR: gel filtration, 360/330 nm absorbance
Description: Apo-RBP at 10 μM was incubated with […] in PBS at room temperature for 1 hour. 10 μM of TTR was then added to the solution, and the mixture was incubated for another hour at room temperature. […] of the sample mixtures with and without TTR addition were analyzed by BioRad Bio-Sil SEC 125 Gel Filtration Column (300×7.8 mm). In control experiments, atROL-RBP and atROL-RBP-TTR mixture were analyzed in the same manner.

[1] = target: Retinol Binding Protein (RBP) (Homo sapiens, UniProt P02753); assay: Fluorescence quenching study of MPR binding to retinol binding protein
Description: Apo-RBP at 0.5 μM was incubated with 0, 0.25, 0.5, 1 and 2 μM of MPR in PBS at room temperature for 1 hour, respectively. As controls, the same concentration of Apo-RBP was also incubated with 1 μM of HPR or 1 μM of atROL. All mixtures contained 0.2% Ethanol (v/v). The emission spectra were measured between 290 nm to 550 nm with excitation wavelength at 280 nm and 3 nm bandpass.

retinol-RBP-TTR complex = retinol-RBP-TTR complex (Homo sapiens, UniProt P02753); assay: High-throughput FRET assay for RBP/TTR interaction; type: binding; settings: conditions as for HPR, FIG. 6
Source text: Reduction of serum retinol and RBP are correlated with concomitant reductions in toxic lipofuscin fluorophores. Because compounds that affect RBP-TTR interaction will directly affect fluorophore levels in the eye, a high-throughput screen for small molecules which prevent interaction of RBP with TTR was developed. This screen employs probe-labeled forms of RBP and TTR which participate in a unique fluorescence resonance energy transfer (FRET) event when complexed. Compounds which interfere with RBP-TTR interaction prevent FRET. Sample spectra taken during the course of this type of assay are shown, in FIG. 4. […] The sample is incubated at 37° C. for 30 min and then illuminated with 330 nm light. The emission spectra are shown in the range of 400-600 nm. HPR binds to RBP and prevents interaction with TTR, and here this property of HPR is utilized here to validate the ability of this screen to detect inhibition of RBP-TTR interaction. […] Additionally, the design of this assay permits discrimination between compounds which interact with RBP versus those which interact with TTR. Thus, by using two distinct excitation energies (280 nm and 330 nm, for protein and retinol, respectively) and implementing simultaneous monitoring of the retinol and TTR-probe fluorescence, the “target” of a presumptive small molecule can be easily determined.
Accordingly, HPR was employed at varied concentrations (from 0-4 μM), using the conditions specified in Example 7, to evaluate the high throughput assay.
The mechanism of action underlying this effect can be explained by the disruption of RBP-TTR interactions. In order to explore this possibility and to further validate the RBP-TTR screen, the effects of all-trans retinoic and 13-cis retinoic acid, using the conditions the conditions specified for analysis of HPR, were examined.

[2] = several investigators; Berni et al. 1993; cited from earlier work

## COc1ccc(NC(=O)\C=C(C)/C=C/C=C(C)\C=C\C2=C(C)CCCC2(C)C)cc1 (stereo in doubt) [MPR, N-(4-methoxyphenyl)retinamide]
ABCA4−/− mice
  detection of HPR or HPR metabolites in the eyes: unable to detect
TTR binding to RBP
  binding of RBP to ligand (360 nm absorbance in RBP elution peak): RBP binds to MPR
TTR binding to RBP; 10 μM TTR
  effect on binding of TTR to RBP: inhibits the binding of TTR to RBP
  binding of ligand-RBP to TTR: did not bind to TTR
[1]; 0.5 μM Apo-RBP, 0-2 μM MPR, room temperature 1 hour, excitation 280 nm
  quenching of RBP fluorescence: concentration-dependent quenching
[1]; controls at 1 μM
  degree of quenching compared with other ligands: smaller than those by atROL and HPR
[1]; for 0.5 μM of RBP
  concentration at which quenching saturated: 1 µM

## CC1=C(/C=C/C(C)=C/C=C/C(C)=C\C(=O)O)C(C)(C)CCC1 [13-cis retinoic acid, 13-cis-retinoic acid]
retinol-RBP-TTR complex
  inhibition of RBP-TTR interaction: inhibitors of RBP-TTR interaction

## CC1=C(/C=C/C(C)=C/C=C/C(C)=C/C(=O)O)C(C)(C)CCC1 [all-trans retinoic, all-trans-retinoic acid]
retinol-RBP-TTR complex
  inhibition of RBP-TTR interaction: inhibitors of RBP-TTR interaction
[2]
  reduction in circulating RBP and retinol: observed in vivo

## CC1=C(/C=C/C(C)=C/C=C/C(C)=C/CO)C(C)(C)CCC1 [atROL, all-trans retinol]
TTR binding to RBP; 10 μM TTR
  binding of ligand-RBP to TTR: binds to TTR
[1]; 1 μM ligand, 0.5 μM Apo-RBP
  binding to RBP: bind to RBP

Source: patent publication US20120202885A1, “METHODS, ASSAYS AND COMPOSITIONS FOR TREATING RETINOL-RELATED DISEASES” (ReVision Therapeutics, Inc., priority 2004, published 2012)
